Laboratory results published in paper PMC8776094, “Reactive Oxygen Species Production Is Responsible for Antineoplastic Activity of Osmium, Ruthenium, Iridium and Rhodium Half-Sandwich Type Complexes with Bidentate Glycosyl Heterocyclic Ligands in Various Cancer Cell Models” (International Journal of Molecular Sciences, 2022).

Key:
[1] = Determination of the distribution coefficients (logD), n-octanol/PBS; format: physicochemical; settings: n-octanol / PBS pH = 7.40, rt
Description: Before starting the experiments, n-octanol was saturated with an aqueous PBS solution (pH = 7.40) and vice versa. A solution of the appropriate complex (approximately 0.2–0.3 mg) in a mixture of 2.50 mL pre-saturated n-octanol and 2.50 mL pre-saturated PBS buffer was made, and the resulting mixture was then vigorously stirred for 3 days at rt. Based on our previous NMR stability experiments, this time is long enough to reach equilibrium among the various ionic complex species. Due to the lipophilic/hydrophilic features of the complexes, those with benzoyl protection could primarily be found in the n-octanol, while the complexes with O-peracetylated and O-deprotected ligands were in the aqueous PBS phase. The corresponding separated solution was centrifuged (ScanSpeed 406G instrument, 4000 RPM for 5 min) and the absorption of the ”stock solution” was determined (VWR UV-1600PC Spectrophotometer, 270–420 nm). Then, 2.00 mL of the stock solution was vigorously stirred with 16.00 mL of pre-saturated n-octanol or PBS solution. After one day had passed, the phases were separated, centrifuged, and the absorption of the solution was measured again. From the absorption difference of the stock solutions, the distribution coefficient (D) was determined using previously described formulae [71].

[2] = test system: A2780 ovarian cancer cells; assay: SRB assay, 48 h, cytostasis, A2780; format: cell-based; settings: for A2780 Max. Inh. (%): SRB assay, 48 h, ND = not detected; for cytostatic activity on A2780 cells in SRB assay (in words): 48 h treatment
Description: (§1) The compounds were tested between 0.001694 and 33.3333 µM, using a 4-hour-long MTT test to assess rapid toxicity and a 48-hour-long SRB assay to assess the long-term effects of the inhibition of proliferation (cytostasis). The MTT assay assesses the activity of mitochondrial complex I and detects rapid, direct toxicity, as well as indicating apoptosis and necrosis. The SRB assay measures the total protein content that is proportional to cell numbers; therefore, the assay can detect changes in cell numbers and can thus be used as a readout for cell proliferation. The SRB assay was performed after 48 h of treatment (with the exception of L428 cells, which were tested for 96 h due to their slower proliferation rate). In this setting, the SRB assay informs us of long-term changes to cell proliferation. We assessed the maximal inhibition within that concentration range, and descriptive statistics were performed. We performed a one-way ANOVA, followed by the Kruskal–Wallis test, regardless of the normal or non-normal distribution of the data. Due to the large number of significance values, the results of the significance calculations are provided in an Excel spreadsheet at https://figshare.com/s/28d14597d5041f08eb08 (accessed on 6 January 2022), among other primary data of the study. Where possible, nonlinear regression was performed on the curves to determine the IC50 values ((inhibitor) vs. response—variable slope (four parameters) method with Graphpad v8.0.1). […] In Table 5, we added the IC50 values that we determined for a set of 4 active ruthenium half-sandwich complexes we identified previously, to be used in subsequent structure-activity relationship (SAR) analyses.
A2780 cells were cultured in RMPI 1640 medium, supplemented with 10% fetal calf serum, 2 mM glutamine, and 1% penicillin-streptomycin.
(§2) The assay was performed similarly to the method used in [73]. Cells were seeded in 96-well plates the day before the assay. Cells were treated with the compounds for 48 h, with the exception of L428, where 96 h of treatment was applied. Cells were fixed with 10% trichloroacetic acid (TCA). Fixed cells were washed in distilled water 3 times, followed by staining with SRB (0.4 m/V% dissolved in 1% acetic acid) for 10 min. The stained cells were washed in 1% acetic acid 5 times; the acetic acid was removed, and the cells were left to dry. Protein-bound SRB was released by adding 100 µL 10 mM Tris base. Plates were measured in a plate photometer (Thermo Scientific Multiscan GO spectrophotometer, Waltham, MA, USA) at 540 nm. On each plate, wells were designed to contain untreated cells. In calculations, the readings for these wells were considered as 1 and all readings were expressed relative to these values.
(§3) Statistical analysis was performed using the 8.0.1 version of Graphpad Prism. Values were tested for normal distribution, using the d’Agostino and Pearson normality test. When necessary, values were log-normalized or were normalized using the Box-Cox normalization method or using a two-step transformation, as indicated in the figure captions. Nonlinear regression was performed using the built-in “[Inhibitor] vs. Response—Variable slope (four parameters), least-square fit” utility of Graphpad, yielding the IC50 and Hill slope values.

[3] = test system: ID8 ovarian cancer cell line; assay: SRB assay, 48 h, cytostasis, ID8; format: cell-based
Description: as §1
ID8 cells were cultured in a high-glucose DMEM (4.5 g/L glucose) medium, supplemented with 4% fetal calf serum, 2 mM glutamine, 1% penicillin-streptomycin, and 1% ITS supplement (I3146).
as §2, §3

Compound	LogD [1]	A2780 Max. Inh. (%) [2]	ID8 Max. Inh. (%) ([3]; SRB assay, 48 h, ND = not detected)	cytostatic activity on A2780 cells in SRB assay (in words) [2]	cytostatic activity on ID8 cells, SRB assay (in words) ([3]; 48 h treatment)
Cc1c(C)c(C)[c-](C)c1C.F[P-](F)(F)(F)(F)F.O=C(OCC1OC(c2noc(-c3ccccn3)n2)C(OC(=O)c2ccccc2)C(OC(=O)c2ccccc2)C1OC(=O)c1ccccc1)c1ccccc1.[Cl][Ir+2] (mixture of isomers) [Ir-1]	2.87	35.13%	–	–	–
Cc1c(C)c(C)[c-](C)c1C.F[P-](F)(F)(F)(F)F.OCC1OC(c2noc(-c3ccccn3)n2)C(O)C(O)C1O.[Cl][Ir+2] (mixture of isomers) [Ir-2]	−1.15	36.38%	–	–	–
Cc1c(C)c(C)[c-](C)c1C.F[P-](F)(F)(F)(F)F.O=C(OCC1OC(c2nnc(-c3ccccn3)o2)C(OC(=O)c2ccccc2)C(OC(=O)c2ccccc2)C1OC(=O)c1ccccc1)c1ccccc1.[Cl][Ir+2] (mixture of isomers) [Ir-4]	1.46	32.45%	–	–	–
Cc1c(C)c(C)[c-](C)c1C.F[P-](F)(F)(F)(F)F.O=C(OC1COC(c2nnc(-c3ccccn3)o2)C(OC(=O)c2ccccc2)C1OC(=O)c1ccccc1)c1ccccc1.[Cl][Ir+2] (mixture of isomers) [Ir-5]	1.80	45.45%	53.15%	–	–
CC(=O)OCC1OC(c2nnc(-c3ccccn3)o2)C(OC(C)=O)C(OC(C)=O)C1OC(C)=O.Cc1c(C)c(C)[c-](C)c1C.F[P-](F)(F)(F)(F)F.[Cl][Ir+2] (mixture of isomers) [Ir-7]	−0.75	26.91%	–	–	–
Cc1c(C)c(C)[c-](C)c1C.F[P-](F)(F)(F)(F)F.OCC1OC(c2nnc(-c3ccccn3)o2)C(O)C(O)C1O.[Cl][Ir+2] (mixture of isomers) [Ir-8]	−1.60	–	–	–	–
Cc1c(C)c(C)[c-](C)c1C.F[P-](F)(F)(F)(F)F.OCC1OC(c2nnc(-c3ccccn3)o2)C(O)C(O)C1O.[Cl][Ir+2] (mixture of isomers) [Ir-9]	−1.47	21.29%	–	–	–
Cc1c(C)c(C)[c-](C)c1C.F[P-](F)(F)(F)(F)F.OC1COC(c2nnc(-c3ccccn3)o2)C(O)C1O.[Cl][Ir+2] (mixture of isomers) [Ir-10]	−1.56	23.12%	–	–	–
CC(=O)OCC1OC(n2cc(-c3ccccn3)nn2)C(OC(C)=O)C(OC(C)=O)C1OC(C)=O.Cc1c(C)c(C)[c-](C)c1C.F[P-](F)(F)(F)(F)F.[Cl][Ir+2] (mixture of isomers) [Ir-11]	–	20.26%	–	biologically inactive	–
Cc1c(C)c(C)[c-](C)c1C.F[P-](F)(F)(F)(F)F.OCC1OC(n2cc(-c3ccccn3)nn2)C(O)C(O)C1O.[Cl][Ir+2] (mixture of isomers) [Ir-12]	–	19.11%	–	biologically inactive	–
Cc1c(C)c(C)[c-](C)c1C.F[P-](F)(F)(F)(F)F.O=C(OCC1OC(c2nnc(-c3ccccn3)o2)C(OC(=O)c2ccccc2)C(OC(=O)c2ccccc2)C1OC(=O)c1ccccc1)c1ccccc1.[Cl][Rh+2] (mixture of isomers) [Rh-3]	1.60	39.86%	–	–	–
Cc1c(C)c(C)[c-](C)c1C.F[P-](F)(F)(F)(F)F.O=C(OCC1OC(c2nnc(-c3ccccn3)o2)C(OC(=O)c2ccccc2)C(OC(=O)c2ccccc2)C1OC(=O)c1ccccc1)c1ccccc1.[Cl][Rh+2] (mixture of isomers) [Rh-4]	1.64	35.30%	–	–	–
dichloro(η^6-p-cymene)osmium(II) dimer [Os-dimer]	–	–	–	inactive	inactive
